“Also recorded” adds a separate entry of the source.
Experiments:
type I procollagen mRNA = assay: Northern blot of type I procollagen mRNA in HF 250 fibroblasts grown on collagen or plastic; assay type: cell-based, human; settings: 3 μg/ml, 24 hours, vs 10% dimethyl sulfoxide alone; for expression of type I procollagen mRNA (ratio to GAPDH mRNA density) relative to control: fibroblasts grown on collagen; for expression of type I procollagen mRNA relative to control: fibroblasts grown on plastic
Procedure: (§1) A primary cell line of normal human dermal fibroblasts (HF 250) was derived from the outgrowth of cells from explants of discarded foreskin. Fibroblasts were maintained in Dulbecco's modification of Eagles medium (DMEM) supplemented with 10% fetal bovine serum (FBS). Cells were grown to confluence and passed 1:1 by trypsinization. HF 250 cells were used between their 5th and 7th passages.
(§2) Acid-soluble collagen was isolated from rat tail tendons by acetic acid extraction. Briefly, rat tail tendons were teased from adult rat tails and stirred in ice cold 0.5 M acetic acid for 2 days. The solubilized collagen was cleared by centrifugation and the supernatant made 10% in respect to NaCl w/v. The precipitated collagen was collected by centrifugation, resuspended in 1 mM HCl, dialyzed exhaustively against 1 mM HCl, frozen, lyophilized, weighed, resuspended in sterile ice cold 1 mM HCl at 5 mg/ml and stored at 4° C. until needed. The bottoms of 10 cm Petri dishes were covered with cold, sterile collagen solution. Any free collagen solution was removed with a Pasteur pipette and the coated dishes placed in a 37° C. incubator, where they were incubated overnight to allow complete polymerization of the collagen-coated surface.
(§3) To optimize collagen synthesis and processing by cultured fibroblasts, the culture medium was supplemented with 50 μg/ml of vitamin C as L-ascorbic acid 2-phosphate sesquimagnesium salt (Sigma Chemical Co., St. Louis, Mo.). Oxandrolone was the anabolic steroid tested, and it was supplied by Bio-Technology General Corp., Iselin, N.J. A stock solution of oxandrolone was made in a 10% dimethyl-sulfoxide solution.
(§4) Equal numbers of fibroblasts were plated onto tissue culture plastic dishes or collagen-coated Petri dishes. Four confluent 10 cm dishes of HF 250 cells were split in half and the cells replated in four 10 cm collagen-coated and four uncoated dishes. Two collagen-coated dishes and two uncoated dishes received 3 μg/ml of oxandrolone. The two remaining collagen-coated and uncoated dishes received an equal volume of 10% dimethyl-sulfoxide alone. After 24 hours of incubation, the medium was removed and the dishes rinsed with phosphate buffered saline. Northern blot analysis was used to determine the levels of both type I and type III procollagen mRNA expression. Total RNA was extracted from culture cells, using the Total RNA Isolation kit (Ambion, Inc; Austin, Tex.) following the supplier's instructions. […]
(§5) Total extracted RNA was subjected to agarose gel electrophoresis and blotted on a nylon membrane. […] The x-ray film was developed and quantitative analysis done by densitometry. […] The quantities of type I and type III procollagen α1 mRNAs and GAPDH mRNA were determined by densitometry. […]

HF 250 cells = assay: Cell number and morphology of fibroblasts grown on collagen or plastic; assay type: cell-based, human; settings: 3 μg/ml, 24 hours
Procedure: Equal numbers of fibroblasts were plated onto tissue culture plastic dishes or collagen-coated Petri dishes. Four confluent 10 cm dishes of HF 250 cells were split in half and the cells replated in four 10 cm collagen-coated and four uncoated dishes. Two collagen-coated dishes and two uncoated dishes received 3 μg/ml of oxandrolone. The two remaining collagen-coated and uncoated dishes received an equal volume of 10% dimethyl-sulfoxide alone. After 24 hours of incubation, the medium was removed and the dishes rinsed with phosphate buffered saline. Northern blot analysis was used to determine the levels of both type I and type III procollagen mRNA expression. Total RNA was extracted from culture cells, using the Total RNA Isolation kit (Ambion, Inc; Austin, Tex.) following the supplier's instructions. Type I and type III procollagen cDNAs were purchased from American Type Culture Collection (Manassas, Va.). The human α1 (I) (HF677) and α1 (III) (HF934) procollagen cDNAs were enzymatically cleaved, purified, and subsequently end-labeled with ^32P dCTP (New England Nuclear, Boston, Mass.) to generate specific cDNA probes.
By 24 hours, the density of cells on the plastic surface appeared greater than the density of cells grown on collagen. […] See, e.g., Greco and Ehrlich (1992).

[1] = system: normal human dermal fibroblasts (HF 250); assay: Pilot study: collagen produced by fibroblast cultures, pepsin extraction and SDS-PAGE of collagen α chains; assay type: cell-based; settings: 0, 1, 3, 10 or 30 μg/ml tested, 24 hours, ascorbate 50 μg/ml, Coomassie-stained SDS-PAGE; data not shown
Procedure: as §1, §3
An initial pilot study was conducted to determine the concentration of anabolic steroid that would maximize collagen synthesis, as follows. After fibroblast cultures became confluent in 2 days, the culture medium was replaced with a medium supplemented with ascorbate at 50 μg/ml. To each dish, a different concentration of oxandrolone was added (0, 1, 3, 10 or 30 μg/ml). Dishes were incubated for 24 hours in a water saturated atmosphere at 37° in 95% air, 5% CO2. […]

[2] = system: type III procollagen mRNA; assay: Northern blot of type III procollagen mRNA in HF 250 fibroblasts grown on collagen or plastic; assay type: cell-based, human; settings: 3 μg/ml, 24 hours, vs 10% dimethyl sulfoxide alone; for increase of type III procollagen mRNA expression (ratio to GAPDH mRNA density) relative to control: fibroblasts grown on collagen; for expression of type III procollagen mRNA relative to control: fibroblasts grown on plastic
Procedure: as §1, §2, §3, §4, §5

C[C@]12COC(=O)C[C@@H]1CC[C@@H]1[C@@H]2CC[C@@]2(C)[C@H]1CC[C@]2(C)O [Oxandrolone, 17-methyl-17-hydroxy-2-oxa-5-androstan-3-one]
expression of type I procollagen mRNA (ratio to GAPDH mRNA density) relative to control (type I procollagen mRNA): doubled; also recorded: increased | expression of type I procollagen mRNA (ratio to GAPDH mRNA density) relative to control (type I procollagen mRNA; listed as oxandrolone): doubles | expression of type I procollagen mRNA relative to control (type I procollagen mRNA): did not noticeably change; also recorded: minimal effect | expression of type I procollagen mRNA relative to control (type I procollagen mRNA; listed as oxandrolone): minimal change | cell morphology (HF 250 cells): no obvious difference | number of fibroblasts (HF 250 cells): did not affect | concentration giving the maximal intensity of collagen α chain staining [1]: 3 µg/mL | increase of type III procollagen mRNA expression (ratio to GAPDH mRNA density) relative to control [2]: enhanced | increase of type III procollagen mRNA expression (ratio to GAPDH mRNA density) relative to control ([2]; listed as oxandrolone): 11 fold | expression of type III procollagen mRNA relative to control [2]: enhanced | expression of type III procollagen mRNA relative to control ([2]; listed as oxandrolone): minimal change; also recorded: minimal effect
